According to patent US8222210B2 (priority 2005, dated 2012):
Values belong to the compound of their own block, whether it stands above or below them.

Columns and labels:
NK1 receptor [1] = test: rabbit iris sphincter smooth muscle contraction; format: cell-based, New Zealand White rabbits; details: for biological activity relative to SP: rabbit iris sphincter muscle contraction
From the text: The biological assay chosen for this study was smooth muscle contraction with the rabbit iris sphincter. […] The conformational investigations involved ^1H-NMR analyses of a set of β-MeF-containing SP analogs, and a computational study of the effects that the introduction of a β-methyl group in the Phe^7 and/or Phe^8 residues has upon an energy minimized structure of the peptide, using the helical structure of SP derived by Young et al. (1994) as a starting point for the calculations.
New Zealand White rabbits were sacrificed by an i.v. overdose of sodium pentobarbital. The eyes were then enucleated and the iris/ciliary body was isolated. Central regions of the iris sphincter muscle was then isolated and the tissue bisected, producing two iris sphincter muscle preparations. The muscle strips were connected to a Grass force-displacement transducer with an initial loading force of 100 mg placed on the muscle. The tissue was then allowed to equilibrate for 60 minutes. Contractions were recorded by a Grass 7 Physiograph. Tissues were bathed at 37° C. in a 50 ml modified Ringer's solution (90 mM NaCl, 3.6 mM KCl, 20 mM HEPES (sodium salt), 0.6 mM MgCl, 7.5 mM Na2SO4, 1.4 mM Ca-gluconate, 20 mM NaHCO3, 0.6 mM MgSO4, 0.6 mM K2HPO4 and 26 mM glucose). The Ringer's solution was gassed with 95% air/5% CO2 (pH 7.4). […] To block potential proteolytic effects the following proteolysis inhibitors were added: 1 μM thiorphan, 1 μM phosphoramidon, 1 μM captopril, 3 μg/ml leupeptin, and 3 μg/ml chymostatin.
To evaluate the viability of each muscle preparation, maximum contraction was determined by a 10^−5 M dose of carbachol at the beginning and end of each experiment. Following the initial carbachol dose, tissues were washed by three exchanges of Ringer's solutions. Previous studies have shown that this is sufficient to remove carbachol from these solutions and to return the resting tension to normal values. Each peptide was then evaluated for its ability to induce sphincter muscle contraction, and dose-response curves (from 2×10^−11 to 7×10^−7 M) were determined. A minimum of four determinations were performed for each experimental condition. The dose response curves were fit by means of a nonlinear regression analysis program (Sigma Plot®, Jandel Scientific).
Therefore, since the binding of SP to the NK1 and NK3 receptors in the rabbit iris differs by a factor of over 20, it is reasonable to assume that the contraction of the rabbit iris sphincter by βMeF-containing SP analogs primarily reflect the activation of the NK1 receptor.

[2] = test system: full thickness skin punch wounds; test: full thickness skin punch wound healing in a rat model (topical, AQUAPHOR); format: in vivo, Sprague-Dawley rats; details: for percentage decrease of the wound area versus control wounds (paired T-test): SP p<0.025, selenocystamine at the 0.05 level; for % decrease in wound size (wound area day 6 compared with day 0): rat punch wound, topical once a day, SP 0.05%, selenocystamine 10 ug Se/ml
Method: In addition, selenocystamine was tested as a potential wound treatment at the same time.
Twenty-one male Sprague-Dawley rats weighing between 300-350 g were used in this study. The rats were housed in the temperature controlled vivarium at Texas Tech Health Science Center with a 12-hour alternating light cycle, and were provided water and rat chow ad libitum. Animals were allowed several days of adjustment upon arrival before the surgery to get rehydrated and familiar with the environment. The study protocol was approved by the Texas Tech University Health Sciences Center Animal Care and Use Committee which assured that the animals received humane care.
On the day of the surgery (day 0), the rats were weighed and anesthetized with 1 ml/kg intraperitoneal (IP) injection of the solution made up of 3 parts XYLAZINE® and 7 parts of KETASET®. The animals' backs and necks were shaved and prepared aseptically. Lack of response to tail pinch and absence of a righting reflex were used as indications that anesthesia was adequate. Supplemental anesthetic was administered IP as necessary to maintain an adequate anesthesia.
A 7 mm-diameter punch (George Tiemann & Co.) was used to introduce the punch wound. The procedure was to fold the skin along the sagittal axis and put it down left or right side (rotate animal by animal) against a hard surface, then to thrust the punch through the two layers of skin. In this way, two identical punch wounds were obtained. Four wounds were introduced on each animal. The four wounds were arranged in two columns parallel to the sagittal axis and two rows parallel to the transverse axis.
After the wound procedure, three different treatments were assigned to the wounds. […] The two under were assigned selenocystamine treatment. For the control wound, a drop of normal saline was applied followed by a layer of AQUAPHOR™ to cover the wound. For the SP wound, a drop of 0.05% (0.5 mg/ml) SP water solution was applied followed by a layer of 0.05% (0.5 mg/g) SP-AQUAPHOR™ to cover the wound. For the selenocystamine wounds, a drop of selenocystamine water solution (10 ug Se/ml) was applied to each wound followed by a layer of selenocystamine-AQUAPHOR™ ([…]) to cover the wound. Then gauze and tape were applied to secure the wound. The animals were held under warming lights and observed until they were fully recovered from the anesthesia and then were returned to the vivarium. All the treatment agents and placebo were stored in a refrigerator. Dressing changes and treatments were performed once a day until the animals were sacrificed on day 6. The assignments and dosage of the treatments were as described above.
Following the surgery, the wounds were measured in two dimensions: sagittal and transverse. Photographs were taken using a PENTAX® ESPIO 928 camera and Kodak® ISO 200 color film. After the animals were sacrificed on day 6, the eschars covering the wounds were removed. Then the wounds were again measured in two dimensions, and photographs were taken.
The animals were sacrificed on day 6 after the surgery by euthanasia with […]® (Sodium Pentobarbital, 7.9% isopropanol, euthanasia solution). The entire wound plus a 1 mm margin of normal skin from each of the test and control wound sites on each animal was excised and preserved in buffered formalin.
The product obtained by multiplying the two measurements of each wound was referred to as the area of the wound. The percentage of the decrease of the wound area on day 6 compared with day 0 was used to evaluate the rate of healing. Since the exact time of wound healing was difficult to determine, day 6 was chosen.
Mean and standard deviations were determined on the difference of the percentage of the wound area decrease between each treatment and the control. Significant differences between treatments and the control were determined by paired T-test to see if the percentage of the decrease in wound area was greater for the treated wounds than for the control wound. […]

NK1 receptor [3] = target: NK1 receptor (Homo sapiens, UniProt P25103); details: cited from earlier work
Sequence of NK1 receptor (Homo sapiens, UniProt P25103) (P25103 whole entry, species assumed): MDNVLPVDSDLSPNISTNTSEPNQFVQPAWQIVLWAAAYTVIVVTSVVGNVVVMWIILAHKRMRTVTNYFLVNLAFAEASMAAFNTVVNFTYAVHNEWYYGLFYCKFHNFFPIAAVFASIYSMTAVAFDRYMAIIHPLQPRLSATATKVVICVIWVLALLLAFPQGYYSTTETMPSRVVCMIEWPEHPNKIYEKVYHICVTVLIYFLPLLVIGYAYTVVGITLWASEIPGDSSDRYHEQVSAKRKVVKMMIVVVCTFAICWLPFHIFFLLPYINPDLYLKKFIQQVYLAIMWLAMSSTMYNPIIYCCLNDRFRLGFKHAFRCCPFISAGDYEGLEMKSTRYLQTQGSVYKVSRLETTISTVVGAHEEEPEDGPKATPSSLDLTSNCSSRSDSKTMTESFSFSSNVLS

cellular growth = cellular growth promoting activity (description); format: cell-based
full thickness wound = test: full thickness 7 mm punch wound in the back of rats, hyaluronic acid vehicle (FIG. 10); format: in vivo; details: after 6 days, 16 rats, both wounds received hyaluronic acid vehicle
From the text: FIG. 10 represents the percent healing after 6 days for a full thickness wound in the back of 16 different rats. The initial wound size was a 7 mm punch wound. Each rat received two wounds, a control (no SP) and an SP treated wound. Both wounds received a hyaluronic acid vehicle.
Supplemental growth factors have the ability to accelerate wound healing in a variety of experimental animal models (EE). This has even led to clinical trials. However, the human studies have not been as successful as the animal models. Due to the complexity of the interaction of different growth factors, it is likely that the right combination of different growth factors has not been explored.

NK1 and NK3 receptors = details: rabbit iris; cited from earlier work

Compound: 7S,8R-(βMeF)2SP: Substance P analog with S-β-methylphenylalanine at position 7 and R- at position 8
- biological activity relative to SP (NK1 receptor [1]): equipotent (to SP)
- biological activity relative to SP (NK1 receptor [1]; listed as 7S,8R-(β-MeF)2SP): do not significantly alter the activity

Compound: 7S,8S-(βMeF)2SP: Substance P analog with S-β-methylphenylalanine at positions 7 and 8
- biological activity relative to SP (NK1 receptor [1]): most active disubstituted SP analogs
- biological activity relative to SP (NK1 receptor [1]; listed as 7S,8S-(β-MeF)2SP): enhance the activity

Compound: 7S-(βMeF)SP: Substance P analog with S-β-methylphenylalanine at position 7
- biological activity relative to SP (NK1 receptor [1]): slightly more active than SP

Compound: 8R-(βMeF)SP: Substance P analog with R-β-methylphenylalanine at position 8
- biological activity relative to SP (NK1 receptor [1]): the most active SP analog
- biological activity relative to SP (NK1 receptor [1]; listed as R-β-MeF into position 8 of SP): four-fold enhancement

Compound: 8S-(βMeF)SP: Substance P analog with S-β-methylphenylalanine at position 8
- biological activity relative to SP (NK1 receptor [1]): the least active of the monosubstituted analogs
- biological activity relative to SP (NK1 receptor [1]; listed as S-β-MeF into position 8 of SP): ten-fold reduction

Compound: NCC[Se][Se]CCN [selenocystamine, reference compound]
- percentage decrease of the wound area versus control wounds (paired T-test) ([2]; day 6): not significantly higher than the control
- % decrease in wound size (wound area day 6 compared with day 0) ([2]; day 6): 31.8±18.3%
- wound enlargement (one wound of the group) ([2]; six day period): 2.9%

Compound: QFFGLM (SEQ ID NO:8) (listed as Homo sapiens) [SP6-11, reference compound]
- activity as % of that found for the whole SP molecule (NK1 receptor [3]): 50-90%
- cellular growth promoting activity (cellular growth): active in promoting cellular growth

Compound: SEQ ID NO:9: substitution peptide where norleucine has been substituted for the C-terminus methionine in Substance P (RPKPQQFFGLX; (11)..(11) Norleucine; listed as Homo sapiens)
- cellular growth promoting activity (cellular growth): enhanced activity under at least some treatment conditions

Further lines, with some results ahead:

- biological activity relative to SP (NK1 receptor [1]): the least active analog
Compound: 7R,8R-(βMeF)2SP: Substance P analog with R-β-methylphenylalanine at positions 7 and 8
- biological activity relative to SP (NK1 receptor [1]; listed as 7R,8R-(β-MeF)2SP): diminish the biological activity by a factor of ten

- biological activity relative to SP (NK1 receptor [1]): most active disubstituted SP analogs
- biological activity relative to SP (NK1 receptor [1]; listed as 7R,8S-(β-MeF)2SP): enhance the activity
Compound: 7R,8S-(βMeF)2SP: Substance P analog with R-β-methylphenylalanine at position 7 and S- at position 8

- biological activity relative to SP (NK1 receptor [1]): equipotent to SP
Compound: 7R-(βMeF)SP: Substance P analog with R-β-methylphenylalanine at position 7

- doses producing a rapid increase in the force of contraction (NK1 receptor [1]; rabbit iris sphincter muscle): greater than 10^−10 M
- maximum effective dose (NK1 receptor [1]; rabbit iris sphincter muscle): 10^−7 M
Compound: RPKPQQFFGLM (SEQ ID NO:1) [SP]
- control wounds showing more percent healing than the SP wound on the same rat (full thickness wound): 4 out of 16
- factor by which binding to NK1 and NK3 receptors differs (NK1 and NK3 receptors): over 20
- percentage decrease of the wound area versus control wounds (paired T-test) ([2]; day 6): significantly higher than that of the control wounds
- % decrease in wound size (wound area day 6 compared with day 0) ([2]; day 6): 41.6±15.0%
- wound with the greatest decrease in size ([2]; single wound of the treatment group, day 6): 66.7%
